Experimental data reported in patent US20220184231A1, “CLOSED-ENDED DNA (CEDNA) AND IMMUNE MODULATING COMPOUNDS” (Generation Bio Co., priority 2019, published 2022).
“Also recorded” adds a separate entry of the source.

Tests used:
Format in all cases: in vivo
[1] = system: luciferase transgene expression from ceDNA vector; assay: In-life IVIS imaging of luciferase expression from ceDNA vector; settings: male CD-1 mice, LNP-ceDNA 0.5 mg/kg i.v., day 4 and day 7, compared with ceDNA/polyC group
Procedure: A ceDNA vector encoding luciferase as the transgene (e.g., SEQ ID NO: 56), with a wild-type AAV2 left ITR and a mutant right ITR and a hAAT promoter, methylated to eliminate free CpG, was used. The ceDNA vector was prepared as described above. […] Four replicates were included in each sample group. Body weights were recorded on days 0, 1, 2, 3, 7, 14, 21 and 28. In-life imaging was performed on days 4, 7, 14, 21, and 28 using an in vivo imaging system (IVIS). For the imaging, each mouse was injected with luciferin at 150 mg/kg via intraperitoneal injection at 2.5 mL/kg. After 15 minutes, each mouse was anaesthetized and imaged.

IL-6 = assay: Cytokine analysis of serum samples after administration: IL-6; settings: male CD-1 mice, LNP-ceDNA 0.5 mg/kg i.v.; relative to ceDNA treatment alone
Source text: (§1) FIGS. 6A, 6B and 6C provide graphs showing data from the experiments described in Example 6.

TNF-alpha = assay: Cytokine analysis of serum samples after administration: TNF-alpha; settings: male CD-1 mice, LNP-ceDNA 0.5 mg/kg i.v.; relative to ceDNA treatment alone
Source text: as §1

RANTES = assay: Cytokine analysis of serum samples after administration: RANTES; settings: male CD-1 mice, LNP-ceDNA 0.5 mg/kg i.v.; relative to ceDNA treatment alone
Source text: as §1

cytokines = assay: Cytokine analysis of serum samples after administration: other cytokines; settings: male CD-1 mice, LNP-ceDNA 0.5 mg/kg i.v.; cytokines other than IL-6, TNF-alpha, RANTES
Source text: as §1

## dexamethasone palmitate
[1]
  total flux (luciferase expression from the ceDNA vector): no impact
IL-6
  induction of IL-6 (serum level): significantly less induction; also recorded: significantly reduced
TNF-alpha
  induction of TNF-alpha (serum level): significantly less induction; also recorded: significantly reduced
RANTES
  induction of RANTES (serum level): significantly less induction; also recorded: significantly reduced
cytokines
  levels of other cytokines (serum): not impacting
